Test results as given in PubChem BioAssay AID1208 (EPA DSSTox, 2008).
Calls of active or inactive are those of the source.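 The calls were made as follows: active = at least one rat sex group has a carcinogenic potency value and tumor site recorded; inconclusive = only rat studies were judged inadequate by the national testing program; inactive = no potency or tumor site, with negative rat experiments.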 *1 amine or outer side, *2 acyl side, *3 side chain or, on linkers, in order; H or OH if unused. Where a SMILES comes first, the peptide text is derived from it. Bridges are numbered along the chain shown (N, C = ends). Roman numbers before positions name the chains, in order. [ ]: non-standard residue; d: D form. Actinocin(9to1) = Cc1c2oc3c(C)ccc(C(=O)[*:1])c3nc-2c(C(=O)[*:2])c(N)c1=O; NMeV = CN[C@H](C(=O)O)C(C)C; Sar = CNCC(=O)O

Test system: rat chronic carcinogenicity bioassay, TD50
Assay: DSSTox (CPDBAS) Carcinogenic Potency Database Summary Rat Bioassay Results
Conditions: for Potency: active compounds read low
Method in brief: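 The activity score maps log10(1/TD50_Rat_mmol) linearly onto 1–100; actives without a computed TD50, such as mixtures, receive 50. Source data are chronic rat carcinogenicity tests, using the most positive experiment for each sex.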

[1] = TD50_Rat_Note: no positive results, TargetSites_Rat_Female: no positive results
[2] = TD50_Rat_Note: TD50 is harmonic mean of more than one positive test, TargetSites_Rat_Female: liver
[3] = TD50_Rat_Note: no positive results
[4] = TargetSites_Rat_Female: mammary gland
[5] = TD50_Rat_Note: TD50 is harmonic mean of more than one positive test
[6] = TargetSites_Rat_Female: no positive results

O=[N+]([O-])c1ccc(-c2nc(N3CCOCC3)c3ccccc3n2)s1
Potency (TargetSites_Rat_Female: all tumor bearing animals): 5.03 mg/kg/day

COc1ccccc1N
Potency (TD50_Rat_Note: TD50 is harmonic mean of more than one positive test, TargetSites_Rat_Female: urinary bladder): 29.7 mg/kg/day

Cc1ccc2c(-c3cccc(O)c3)nc(=O)n(C(C)C)c2c1
outcome [1]: inactive; no positive results

CCCCOCCOCCOCc1cc2c(cc1CCC)OCO2
Potency [2]: 633 mg/kg/day

CC(=O)N(O)c1ccc2c(c1)Cc1ccccc1-2
Potency [2]: 0.988 mg/kg/day

Oc1ccc2ccccc2c1N=Nc1ccccc1
Potency [2]: 29.4 mg/kg/day

CCCCCCCCCCN(C)N=O
Potency: 1.26 mg/kg/day

Oc1cc2c(cc1O)[C@H]1c3ccc(O)c(O)c3OC[C@@]1(O)C2
Potency (TargetSites_Rat_BothSexes: hematopoietic system): 1000 mg/kg/day

CN[C@@H](C)[C@H](O)c1ccccc1
outcome [1]: inactive; no positive results

CC1(C)OC(=O)NC1=O
outcome [3]: inactive; no positive results

CCC1(c2ccccc2)C(=O)NC(=O)NC1=O
outcome [1]: inactive; no positive results

CC(=O)OC/C=C(C)/C=C/C=C(C)/C=C/C1=C(C)CCCC1(C)C
Potency (TD50_Rat_Note: TD50 is harmonic mean of more than one positive test, TargetSites_Rat_Female: adrenal gland): 125 mg/kg/day

COc1cc2c(cc1N)oc1ccccc12
Potency (TD50_Rat_Note: TD50 is harmonic mean of more than one positive test, harmonic mean of TD50 includes a value for upper 99% confidence li, TargetSites_Rat_Female: ear Zymbals gland, mammary gland, urinary bladder): 29 mg/kg/day

O=NN1CCCCC1
Potency (TD50_Rat_Note: TD50 is harmonic mean of more than one positive test, TargetSites_Rat_BothSexes: esophagus, liver, nasal cavity): 1.43 mg/kg/day

CCNc1nc(Cl)nc(NC(C)(C)C#N)n1
Potency [4]: 6.33 mg/kg/day

CCOc1nc2cccc(C(=O)OC(C)OC(=O)OC3CCCCC3)c2n1Cc1ccc(-c2ccccc2-c2nn[nH]n2)cc1 (centres undefined)
outcome [1]: inactive; no positive results

CC(=O)C(N=Nc1ccc(Cl)cc1Cl)C(=O)Nc1ccc(-c2ccc(NC(=O)C(N=Nc3ccc(Cl)cc3Cl)C(C)=O)c(C)c2)cc1C (centres undefined)
outcome (TD50_Rat_Note: no positive results, TargetSites_Rat_BothSexes: no positive results): inactive

CC(=O)OCC(=O)[C@@]12N=C(C)O[C@@H]1C[C@H]1[C@@H]3CCC4=CC(=O)C=C[C@]4(C)[C@H]3[C@@H](O)C[C@@]12C
outcome (TD50_Rat_Note: TD50 not calculated by CPDB Source, TD50_Rat_mmol was not calculated, but Activiity Score is assigned value of 50 to ind, TargetSites_Rat_Female: no positive results): active; bone

N#CS
outcome [1]: inactive; no positive results

N#CSCc1ccccc1
outcome [3]: inactive; no positive results

S=c1nc[nH]c2nc[nH]c12
outcome [1]: inactive; no positive results

CC(=O)CN(C)N=O
Potency (TD50_Rat_Note: TD50 is harmonic mean of more than one positive test, TargetSites_Rat_Female: esophagus, liver, nasal cavity, oral cavity): 0.0172 mg/kg/day

CC(=O)CN(CC(O)CO)N=O (centres undefined)
Potency (TargetSites_Rat_Female: esophagus, oral cavity, stomach): 0.0352 mg/kg/day

ClC1=C(Cl)C2(Cl)C3C(Cl)C=CC3C1(Cl)C2(Cl)Cl (centres undefined)
outcome [1]: inactive; no positive results

CC(C)(CO)CCCCCCC(C)(C)CO
outcome [1]: inactive; no positive results

Cc1nc(N)cc2[nH]c3ccccc3c12
Potency (TD50_Rat_Note: TD50 is harmonic mean of more than one positive test, TargetSites_Rat_Female: clitoral gland, hematopoietic system, liver, mammary gland, small intestine, vascular system): 6.66 mg/kg/day

O.O.O.O.O.O.O=S(=O)([O-])[O-].[Ni+2]
outcome [1]: inactive; no positive results

Cc1c2oc3c(C)ccc(C(=O)N[C@@H]4C(=O)N[C@H](C(C)C)C(=O)N5CCC[C@H]5C(=O)N(C)CC(=O)N(C)[C@@H](C(C)C)C(=O)O[C@@H]4C)c3nc-2c(C(=O)N[C@@H]2C(=O)N[C@H](C(C)C)C(=O)N3CCC[C@H]3C(=O)N(C)CC(=O)N(C)[C@@H](C(C)C)C(=O)O[C@@H]2C)c(N)c1=O (I: T[dV]P[Sar][NMeV] / II: T[dV]P[Sar][NMeV]; ester I:1-I:C, II:1-II:C; linker I:N-II:N via Actinocin(9to1))
Potency (TD50_Rat_Note: positive test results only by intraperitoneal or intravenous injection, TD50 is harmonic mean of more than one positive, TargetSites_Rat_Female: peritoneal cavity): 0.00111 mg/kg/day

FCCl
Potency (TD50_Rat_Note: TD50 is harmonic mean of more than one positive test, TargetSites_Rat_Female: stomach): 27.5 mg/kg/day

C=CC(O)c1ccc2c(c1)OCO2 (centres undefined)
Potency [5]: 18.4 mg/kg/day

ClCCCl
Potency (TD50_Rat_Note: TD50 is harmonic mean of more than one positive test, greater than ten-fold variation among TD50 values for positive res, TargetSites_Rat_Female: mammary gland, subcutaneous tissue): 14.6 mg/kg/day

CCN(CC)C(=S)SSC(=S)N(CC)CC
outcome [1]: inactive; no positive results

O=c1c(O)c(-c2ccc(O)c(O)c2)oc2cc(O)cc(O)c12
Potency (TD50_Rat_Note: TD50 is harmonic mean of more than one positive test, greater than ten-fold variation among TD50 values for positive res, TargetSites_Rat_Female: small intestine, urinary bladder): 10.1 mg/kg/day
outcome [1]: inactive; no positive results

CCCCN(N=O)C(=N)N[N+](=O)[O-]
outcome [3]: inactive; no positive results

CNC(=O)O/N=C(\SC)C(=O)N(C)C
outcome [1]: inactive; no positive results

O=c1[nH]c(=O)n(C2CCCO2)cc1F (centres undefined)
outcome [1]: inactive; no positive results

CC(=O)Nc1ccc(-c2ccccc2)cc1O
outcome [1]: inactive

COc1cc2c(c3c1c(=O)c1ccccc1n3C)C=CC(C)(C)O2
Potency (TD50_Rat_Note: positive test results only by intraperitoneal or intravenous injection, TD50 is harmonic mean of more than one positive, TargetSites_Rat_Female: mammary gland, peritoneal cavity): 0.505 mg/kg/day

O=[N+]([O-])c1ccc(Cl)cc1
outcome [3]: inactive; no positive results

Cc1cc(=O)n(-c2ccccc2)n1C
Potency: 1230 mg/kg/day

O=C(O)c1ccccc1
outcome [3]: inactive; no positive results
outcome [1]: inactive; no positive results

Clc1cccc(-c2cc(Cl)cc(Cl)c2)c1
Potency (TD50_Rat_Note: TD50_Rat_mmol was not calculated for this mixture, but Activiity Score is assigned value of 50 to indicate active, TargetSites_Rat_Female: liver): 53.9 mg/kg/day

O=C1c2ccccc2C(=O)c2c(O)cccc21
Potency [5]: 93.5 mg/kg/day

CC(=O)Nc1nnc(-c2ccc([N+](=O)[O-])o2)s1
Potency (TargetSites_Rat_Female: hematopoietic system, kidney, lung, small intestine, stomach, vascular system): 8.84 mg/kg/day

CC1(C)O[C@@H]2C[C@H]3[C@@H]4CCC5=CC(=O)C=C[C@]5(C)[C@@]4(F)[C@@H](O)C[C@]3(C)[C@]2(C(=O)CO)O1
Potency: 0.053 mg/kg/day

CCNNC(=O)[C@@H]1[C@H](c2cc(OC)c(OC)c(OC)c2)c2cc3c(cc2[C@H](O)[C@H]1CO)OCO3
outcome [3]: inactive; no positive results

C=CN1CCCC1=O
Potency (TD50_Rat_Note: TD50 is harmonic mean of more than one positive test, TargetSites_Rat_Female: liver, nasal cavity, oral cavity): 12 mg/kg/day

Cc1ccc(N=Nc2c(O)ccc3ccccc23)c([N+](=O)[O-])c1
Potency [2]: 1170 mg/kg/day

Cc1ccccc1
Potency (TD50_Rat_Note: TD50 is harmonic mean of more than one positive test, TargetSites_Rat_Female: Maltoni head cancers): 3060 mg/kg/day

O=C(O)CCCc1ccc(N(CCCl)CCCl)cc1
Potency (TD50_Rat_Note: TD50 is harmonic mean of more than one positive test, TargetSites_Rat_Female: ear Zymbals gland, mammary gland, nervous system): 0.896 mg/kg/day

O=C(O)CCC(=O)O
outcome [1]: inactive; no positive results

O=S1OCC2C(CO1)C1(Cl)C(Cl)=C(Cl)C2(Cl)C1(Cl)Cl (centres undefined)
outcome [1]: inactive; no positive results

O=C1CC(=O)NC(=O)N1
outcome [3]: inactive; no positive results

COc1cccc(O)c1O
Potency: 48.7 mg/kg/day

Nc1ccc(-c2ccc(N)c(N)c2)cc1N
Potency: 395 mg/kg/day

NCCS(=O)(=O)O
outcome [1]: inactive; no positive results

CCCCC(CC)COP(=O)(OCC(CC)CCCC)OCC(CC)CCCC (centres undefined)
outcome [1]: inactive; no positive results

CN(C)N=O
Potency (TD50_Rat_Note: TD50 is harmonic mean of more than one positive test, greater than ten-fold variation among TD50 values for positive res, TargetSites_Rat_Female: liver, vascular system): 0.0959 mg/kg/day

Cc1cccc(Nc2cc(Cl)nc(SCC(=O)O)n2)c1C
Potency (TD50_Rat_Note: TD50 is harmonic mean of more than one positive test, harmonic mean of TD50 includes a value for upper 99% confidence li): 4.36 mg/kg/day

COc1cc(-c2ccc(N=C=O)c(OC)c2)ccc1N=C=O
Potency (TD50_Rat_Note: TD50 is harmonic mean of more than one positive test, TargetSites_Rat_Female: hematopoietic system, uterus): 1630 mg/kg/day

COc1ccc2c(c1)c(CC(=O)O)c(C)n2C(=O)c1ccc(Cl)cc1
Potency [4]: 1.15 mg/kg/day

CCCCCN(CCCCC)N=O
Potency [2]: 4.03 mg/kg/day

O=C1N(CCO)CCN1/N=C/c1ccc([N+](=O)[O-])o1
Potency [4]: 16.7 mg/kg/day

CCOC(=O)[C@]1(c2ccccc2)CCC=C[C@H]1N(C)C
outcome [1]: inactive; no positive results

CNCCc1ccc(OC(=O)C(C)C)c(OC(=O)C(C)C)c1
outcome [1]: inactive; no positive results

CCCCCCCCCc1ccc(OCCOCCO)cc1
outcome [1]: inactive

CC(O)CNC(=O)N(N=O)C(C)Cl (centres undefined)
Potency [6]: 0.124 mg/kg/day

Nc1ccc2c(c1)oc1ccccc12
Potency: 2.48 mg/kg/day

O=Nc1ccc(Nc2ccccc2)cc1
Potency [6]: 201 mg/kg/day

Nc1ccc(O)c([N+](=O)[O-])c1
Potency [6]: 309 mg/kg/day

COc1cc2c(c3oc(=O)c4c(c13)CCOC4=O)C1C=COC1O2 (centres undefined)
Potency (TD50_Rat_Note: TD50 is harmonic mean of more than one positive test, TD50_Rat_mmol was not calculated for this mixture, but Activiity S): 0.00299 mg/kg/day

Cc1c(C)c2c(c(C)c1O)CCC(C)(CCCC(C)CCCC(C)CCCC(C)C)O2 (centres undefined)
outcome [1]: inactive; no positive results

Cc1cccc(C)c1
Potency (TD50_Rat_Note: TD50 is harmonic mean of more than one positive test, TargetSites_Rat_Female: oral cavity, Maltoni head cancers): 3110 mg/kg/day
outcome [1]: inactive; no positive results

NC(=O)NC1NC(=O)NC1=O (centres undefined)
outcome [1]: inactive; no positive results

CCc1cc(C(N)=S)ccn1
outcome [1]: inactive; no positive results

Nc1ccccc1
Potency (TD50_Rat_Note: TD50 is harmonic mean of more than one positive test, greater than ten-fold variation among TD50 values for positive res, TargetSites_Rat_Female: peritoneal cavity): 269 mg/kg/day
outcome [3]: inactive; no positive results

C1CCCNCCC1
outcome [1]: inactive; no positive results

Cc1cccc(Nc2cc(Cl)nc(SCC(=O)NCCO)n2)c1C
Potency: 6.49 mg/kg/day

Cc1cc(O)ccc1O
outcome [3]: inactive; no positive results

S=C=NCc1ccccc1
outcome [3]: inactive; no positive results
